Values after ≈ are worked out from the molar mass of the structure shown. Each block holds one molecule with its values, some of them ahead of it.
Key:
[1] = target: T1, Tyrosine-protein kinase JAK1 (Homo sapiens, UniProt P23458)
Description: Inhibition of human JAK1 using poly[Glu:Tyr] (4:1) as substrate in presence of 10 uM [gamma33P]ATP by radiometric method

[2] = target: Non-receptor tyrosine-protein kinase TYK2 (Homo sapiens, UniProt P29597)
[3] = target: T2, Tyrosine-protein kinase JAK3 (Homo sapiens, UniProt P52333)
T2 sequence (P52333 whole entry): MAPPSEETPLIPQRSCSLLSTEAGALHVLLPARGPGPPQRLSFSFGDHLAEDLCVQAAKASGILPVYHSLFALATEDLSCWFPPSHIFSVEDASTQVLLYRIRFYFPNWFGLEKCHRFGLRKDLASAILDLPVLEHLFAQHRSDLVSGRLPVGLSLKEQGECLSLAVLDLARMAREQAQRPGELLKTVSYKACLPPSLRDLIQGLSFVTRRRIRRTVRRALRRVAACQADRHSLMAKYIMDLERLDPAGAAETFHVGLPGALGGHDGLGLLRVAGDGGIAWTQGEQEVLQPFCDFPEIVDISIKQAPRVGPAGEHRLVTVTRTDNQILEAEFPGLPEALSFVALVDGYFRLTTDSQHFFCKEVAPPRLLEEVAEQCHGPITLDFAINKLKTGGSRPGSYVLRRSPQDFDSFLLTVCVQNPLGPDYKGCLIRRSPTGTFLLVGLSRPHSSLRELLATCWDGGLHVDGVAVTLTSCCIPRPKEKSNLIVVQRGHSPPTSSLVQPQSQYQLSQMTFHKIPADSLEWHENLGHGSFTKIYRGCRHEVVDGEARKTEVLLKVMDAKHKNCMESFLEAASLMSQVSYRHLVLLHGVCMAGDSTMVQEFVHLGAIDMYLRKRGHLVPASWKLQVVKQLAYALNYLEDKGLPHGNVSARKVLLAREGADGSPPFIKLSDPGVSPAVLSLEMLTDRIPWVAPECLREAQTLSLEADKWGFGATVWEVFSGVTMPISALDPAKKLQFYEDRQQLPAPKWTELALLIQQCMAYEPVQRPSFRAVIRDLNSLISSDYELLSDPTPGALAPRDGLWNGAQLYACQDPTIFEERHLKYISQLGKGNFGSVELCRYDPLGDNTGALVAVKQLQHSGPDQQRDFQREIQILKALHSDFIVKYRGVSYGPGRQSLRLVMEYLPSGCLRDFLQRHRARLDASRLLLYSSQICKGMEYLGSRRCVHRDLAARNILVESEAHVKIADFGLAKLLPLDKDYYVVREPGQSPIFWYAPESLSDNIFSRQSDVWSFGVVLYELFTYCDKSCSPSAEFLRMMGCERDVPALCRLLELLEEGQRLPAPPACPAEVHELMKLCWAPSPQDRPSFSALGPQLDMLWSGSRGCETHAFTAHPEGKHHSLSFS
Description: Inhibition of recombinant human JAK3 (781 to 1124 residues) expressed in baculovirus expression system assessed as reduction in polypeptide substrate phosphorylation in presence of ATP by ELISA

[4] = Thiol reactivity in kinase assay buffer in presence of DTT; type: physicochemical
[5] = target: T2, Tyrosine-protein kinase JAK3; remark: listed apart in the source
[6] = target: T3, Tyrosine-protein kinase JAK2 (Homo sapiens, UniProt O60674); test: Inhibition of kinase tracer-05 binding to C-terminal NanoLuc tagged full length JAK2 (unknown origin) expressed in HEK cells by NanoBRET assay; type: cell-based
T3 sequence (O60674 whole entry): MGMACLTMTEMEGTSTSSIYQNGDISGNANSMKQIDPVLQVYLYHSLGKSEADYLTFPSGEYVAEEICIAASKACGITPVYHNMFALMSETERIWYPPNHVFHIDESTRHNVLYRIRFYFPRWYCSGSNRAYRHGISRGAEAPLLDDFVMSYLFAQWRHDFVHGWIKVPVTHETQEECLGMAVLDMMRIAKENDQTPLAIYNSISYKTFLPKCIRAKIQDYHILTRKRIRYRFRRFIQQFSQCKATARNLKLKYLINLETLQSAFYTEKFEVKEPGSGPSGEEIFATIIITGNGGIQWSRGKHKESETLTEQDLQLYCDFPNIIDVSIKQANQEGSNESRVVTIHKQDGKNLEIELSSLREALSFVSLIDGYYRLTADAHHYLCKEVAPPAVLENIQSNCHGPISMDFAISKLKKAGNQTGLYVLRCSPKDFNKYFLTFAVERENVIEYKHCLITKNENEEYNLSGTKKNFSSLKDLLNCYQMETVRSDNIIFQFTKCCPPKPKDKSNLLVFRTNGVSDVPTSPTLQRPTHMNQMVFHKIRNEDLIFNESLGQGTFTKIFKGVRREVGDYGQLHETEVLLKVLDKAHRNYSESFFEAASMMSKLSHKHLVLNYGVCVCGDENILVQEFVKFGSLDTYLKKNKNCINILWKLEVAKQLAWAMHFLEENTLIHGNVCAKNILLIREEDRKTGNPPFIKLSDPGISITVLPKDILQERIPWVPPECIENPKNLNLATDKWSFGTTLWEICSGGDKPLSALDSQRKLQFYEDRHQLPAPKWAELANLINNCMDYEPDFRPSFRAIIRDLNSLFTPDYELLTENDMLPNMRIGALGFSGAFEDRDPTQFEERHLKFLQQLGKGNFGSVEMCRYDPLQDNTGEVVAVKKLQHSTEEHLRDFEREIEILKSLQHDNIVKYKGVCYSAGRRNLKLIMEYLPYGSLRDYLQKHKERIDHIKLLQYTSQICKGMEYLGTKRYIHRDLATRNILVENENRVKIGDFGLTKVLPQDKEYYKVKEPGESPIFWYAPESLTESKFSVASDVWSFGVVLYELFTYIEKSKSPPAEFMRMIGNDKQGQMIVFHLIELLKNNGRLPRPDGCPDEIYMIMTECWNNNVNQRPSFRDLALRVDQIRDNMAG

[7] = target: Tyrosine-protein kinase BTK (Homo sapiens, UniProt Q06187); test: Inhibition of kinase tracer-05 binding to C-terminal NanoLuc tagged full length BTK (unknown origin) expressed in HEK cells by NanoBRET assay; type: cell-based
Sequence of Tyrosine-protein kinase BTK (Q06187 whole entry): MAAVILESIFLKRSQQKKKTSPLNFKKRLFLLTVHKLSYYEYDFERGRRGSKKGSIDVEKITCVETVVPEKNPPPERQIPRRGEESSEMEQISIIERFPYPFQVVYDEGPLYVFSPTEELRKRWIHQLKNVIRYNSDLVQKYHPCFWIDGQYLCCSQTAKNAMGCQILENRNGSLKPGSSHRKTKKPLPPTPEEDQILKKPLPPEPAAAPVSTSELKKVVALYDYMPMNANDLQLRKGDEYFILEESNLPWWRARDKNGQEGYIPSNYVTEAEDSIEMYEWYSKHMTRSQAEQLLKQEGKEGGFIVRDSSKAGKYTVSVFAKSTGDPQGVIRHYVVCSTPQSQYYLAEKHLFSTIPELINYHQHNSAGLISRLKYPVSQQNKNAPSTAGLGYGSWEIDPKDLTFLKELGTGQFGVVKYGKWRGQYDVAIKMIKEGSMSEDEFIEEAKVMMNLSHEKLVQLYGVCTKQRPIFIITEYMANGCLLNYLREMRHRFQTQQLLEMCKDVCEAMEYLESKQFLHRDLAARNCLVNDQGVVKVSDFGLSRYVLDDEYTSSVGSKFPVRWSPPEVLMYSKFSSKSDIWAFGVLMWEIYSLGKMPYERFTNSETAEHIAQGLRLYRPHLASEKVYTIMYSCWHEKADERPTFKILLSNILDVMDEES

[8] = Metabolic stability in mouse liver microsomes assessed as parent compound remaining at 100 uM after 180 mins in presence of NADPH regenerating system by LC-MS analysis; type: ADME, microsome; details: read-out: Stability
[9] = Metabolic stability in human whole blood assessed as parent compound remaining at 1 uM after 180 mins by LC-MS analysis; type: ADME, tissue-based; details: read-out: Stability
[10] = target: T3, Tyrosine-protein kinase JAK2
Description: Inhibition of human JAK2 using poly[Glu:Tyr] (4:1) as substrate in presence of 10 uM [gamma33P]ATP by radiometric method

[11] = target: T1, Tyrosine-protein kinase JAK1; remark: listed apart in the source
Description: Inhibition of kinase tracer-04 binding to C-terminal NanoLuc tagged full length JAK1 (unknown origin) expressed in HEK cells by NanoBRET assay

[12] = target: T2, Tyrosine-protein kinase JAK3; remark: listed apart in the source
Description: Inhibition of kinase tracer-05 binding to C-terminal NanoLuc tagged full length JAK3 (unknown origin) expressed in HEK cells by NanoBRET assay

[13] = Aqueous solubility in pH 7.4 PBS buffer by HPLC analysis; type: physicochemical
[14] = Half life in human whole blood at 1 uM by LC-MS analysis; type: ADME, tissue-based
[15] = Aqueous solubility in HEPES buffer; type: physicochemical

Sequence of Non-receptor tyrosine-protein kinase TYK2 (P29597 whole entry): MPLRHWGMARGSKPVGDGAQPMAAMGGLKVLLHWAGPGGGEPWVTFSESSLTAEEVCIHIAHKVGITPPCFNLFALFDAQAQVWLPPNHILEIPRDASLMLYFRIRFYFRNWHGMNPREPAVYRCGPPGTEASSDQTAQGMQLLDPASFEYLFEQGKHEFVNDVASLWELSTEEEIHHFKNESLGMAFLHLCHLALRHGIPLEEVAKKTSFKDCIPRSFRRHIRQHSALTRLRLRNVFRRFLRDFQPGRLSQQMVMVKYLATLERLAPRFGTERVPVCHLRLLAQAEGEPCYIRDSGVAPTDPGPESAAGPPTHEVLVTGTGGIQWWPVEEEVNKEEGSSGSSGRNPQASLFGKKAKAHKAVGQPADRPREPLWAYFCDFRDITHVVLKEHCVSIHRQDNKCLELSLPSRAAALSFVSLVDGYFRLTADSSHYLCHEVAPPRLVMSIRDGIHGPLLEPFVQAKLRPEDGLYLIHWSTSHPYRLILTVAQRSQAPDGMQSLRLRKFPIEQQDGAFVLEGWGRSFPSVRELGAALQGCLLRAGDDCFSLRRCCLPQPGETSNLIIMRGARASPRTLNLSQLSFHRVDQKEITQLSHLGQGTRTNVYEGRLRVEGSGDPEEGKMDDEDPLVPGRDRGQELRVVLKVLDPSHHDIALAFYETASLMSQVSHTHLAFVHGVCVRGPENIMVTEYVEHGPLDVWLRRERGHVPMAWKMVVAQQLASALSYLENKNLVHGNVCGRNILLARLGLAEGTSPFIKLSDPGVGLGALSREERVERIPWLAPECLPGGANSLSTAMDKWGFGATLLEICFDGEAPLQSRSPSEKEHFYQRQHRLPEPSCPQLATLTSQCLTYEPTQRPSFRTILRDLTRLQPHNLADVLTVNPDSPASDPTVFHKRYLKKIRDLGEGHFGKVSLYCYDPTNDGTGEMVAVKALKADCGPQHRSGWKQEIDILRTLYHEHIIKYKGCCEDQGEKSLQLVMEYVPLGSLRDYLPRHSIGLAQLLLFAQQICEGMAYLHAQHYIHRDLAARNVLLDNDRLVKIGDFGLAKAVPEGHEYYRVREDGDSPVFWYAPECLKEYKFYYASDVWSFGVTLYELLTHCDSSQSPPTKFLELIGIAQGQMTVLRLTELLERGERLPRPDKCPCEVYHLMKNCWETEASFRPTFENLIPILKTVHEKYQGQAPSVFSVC
T1 sequence (P23458 whole entry): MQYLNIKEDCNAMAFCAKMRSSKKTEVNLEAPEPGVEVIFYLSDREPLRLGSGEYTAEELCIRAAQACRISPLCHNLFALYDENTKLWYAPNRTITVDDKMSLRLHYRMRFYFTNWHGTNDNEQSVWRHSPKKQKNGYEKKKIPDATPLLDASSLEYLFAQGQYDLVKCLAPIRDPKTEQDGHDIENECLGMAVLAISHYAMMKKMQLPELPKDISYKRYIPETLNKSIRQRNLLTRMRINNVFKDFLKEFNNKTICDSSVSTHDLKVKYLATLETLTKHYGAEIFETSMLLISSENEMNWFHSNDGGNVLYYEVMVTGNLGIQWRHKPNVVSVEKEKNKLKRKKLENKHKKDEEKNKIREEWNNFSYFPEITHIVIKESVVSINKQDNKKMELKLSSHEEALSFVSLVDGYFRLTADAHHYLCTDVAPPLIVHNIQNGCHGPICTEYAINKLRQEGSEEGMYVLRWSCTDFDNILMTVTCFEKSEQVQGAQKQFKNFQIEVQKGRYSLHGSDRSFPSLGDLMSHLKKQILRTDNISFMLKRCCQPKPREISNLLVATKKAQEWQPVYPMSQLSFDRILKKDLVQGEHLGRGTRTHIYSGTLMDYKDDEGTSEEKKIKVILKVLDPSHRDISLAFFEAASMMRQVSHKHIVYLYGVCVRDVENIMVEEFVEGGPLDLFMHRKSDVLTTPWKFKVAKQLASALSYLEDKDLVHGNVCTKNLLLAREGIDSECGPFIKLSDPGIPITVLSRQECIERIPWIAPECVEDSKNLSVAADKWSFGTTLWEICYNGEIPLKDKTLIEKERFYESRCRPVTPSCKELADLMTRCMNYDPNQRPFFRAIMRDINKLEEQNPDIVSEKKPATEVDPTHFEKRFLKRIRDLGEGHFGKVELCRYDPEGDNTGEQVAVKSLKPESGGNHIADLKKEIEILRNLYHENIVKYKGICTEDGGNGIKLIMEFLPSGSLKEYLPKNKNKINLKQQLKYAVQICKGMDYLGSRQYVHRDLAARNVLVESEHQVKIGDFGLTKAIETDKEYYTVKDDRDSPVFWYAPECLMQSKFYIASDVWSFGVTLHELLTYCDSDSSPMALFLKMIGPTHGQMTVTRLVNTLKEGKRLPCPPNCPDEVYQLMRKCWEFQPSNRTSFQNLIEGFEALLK

IC50 [1]: 344 nM | IC50 [2]: 2110 nM
SMILES: CC(C)(O)C(=O)N1CCN(c2ccc(C(F)(F)F)c(C3=C(c4c[nH]c5ccccc45)C(=O)NC3=O)c2)CC1

IC50 [3]: 4 nM | Drug metabolism [4]: Metabolite_Detected | IC50 [5]: 0.39 nM | EC50 [6]: 630 nM | EC50 [7]: 5790 nM | remaining at 3 h, 100 µM [8]: 11% | remaining at 3 h, 1 µM [9]: 1.5% | IC50 [1]: 4 nM | IC50 [10]: 188 nM | IC50 [2]: 14 nM | EC50 [11]: 7660 nM | EC50 [12]: 678 nM
SMILES: N#CC(C#N)=Cc1ccc(-c2nc3cnc4[nH]ccc4c3n2C2CCCCC2)o1

IC50 [3]: 14 nM | IC50 [5]: 0.74 nM | EC50 [6]: > 10000 nM | EC50 [7]: > 10000 nM | remaining at 3 h, 100 µM [8]: 6.9% | remaining at 3 h, 1 µM [9]: 47% | solubility [13]: 248 µM (≈ 120 µg/mL) | half-life at 1 µM [14]: 3 h | IC50 [1]: 117 nM | IC50 [10]: 765 nM | IC50 [2]: 791 nM | EC50 [11]: > 10000 nM | EC50 [12]: 257 nM
SMILES: CN1CCN(C(=O)C(C#N)=Cc2ccc(-c3nc4cnc5[nH]ccc5c4n3C3CCCCC3)o2)CC1

IC50 [3]: 59 nM
SMILES: NC(=O)CCc1ccc(-c2nc3cnc4[nH]ccc4c3n2C2CCCCC2)o1

IC50 [3]: 181 nM | IC50 [5]: 48 nM | IC50 [1]: 45 nM | IC50 [10]: 183 nM | IC50 [2]: 139 nM
SMILES: CN(C)C(=O)CCc1ccc(-c2nc3cnc4[nH]ccc4c3n2C2CCCCC2)o1

IC50 [3]: 30 nM | Drug metabolism [4]: Metabolite_Detected
SMILES: N#CC(C#N)=Cc1ccc(-c2nc3cnc4[nH]ccc4c3n2C2CCCCC2)cc1

IC50 [3]: 390 nM
SMILES: N#C/C=C/c1ccc(-c2nc3cnc4[nH]ccc4c3n2C2CCCCC2)cc1

IC50 [3]: 11 nM | Drug metabolism [4]: Metabolite_Detected
SMILES: N#CC(C#N)=Cc1cccc(-c2nc3cnc4[nH]ccc4c3n2C2CCCCC2)c1

IC50 [3]: 499 nM
SMILES: NC(=O)CCc1ccc(-c2nc3cnc4[nH]ccc4c3n2C2CCCCC2)cc1

IC50 [3]: 642 nM
SMILES: CN(C)C(=O)CCc1ccc(-c2nc3cnc4[nH]ccc4c3n2C2CCCCC2)cc1

IC50 [3]: 129 nM | IC50 [5]: 10 nM | IC50 [1]: 16 nM | IC50 [10]: 48 nM | IC50 [2]: 25 nM
SMILES: N#CCCc1ccc(-c2nc3cnc4[nH]ccc4c3n2C2CCCCC2)o1

IC50 [3]: > 1000 nM | solubility [15]: Insoluble
SMILES: NC(=O)/C=C/c1ccc(-c2nc3cnc4[nH]ccc4c3n2C2CCCCC2)cc1

EC50 [7]: > 10000 nM | remaining at 3 h, 100 µM [8]: 58% | remaining at 3 h, 1 µM [9]: 49.4% | solubility [13]: 56 µM (≈ 24 µg/mL) | half-life at 1 µM [14]: 3 h
SMILES: CN(C)C(=O)C(C#N)=Cc1ccc(-c2nc3cnc4[nH]ccc4c3n2C2CCCCC2)o1

IC50 [3]: 27 nM | IC50 [5]: 0.21 nM | EC50 [6]: 7710 nM | EC50 [7]: 13300 nM | remaining at 3 h, 100 µM [8]: 53.9% | remaining at 3 h, 1 µM [9]: 98.8% | IC50 [1]: 12 nM | IC50 [10]: 53 nM | IC50 [2]: 44 nM | EC50 [11]: > 10000 nM | EC50 [12]: 740 nM
SMILES: N#C/C=C/c1ccc(-c2nc3cnc4[nH]ccc4c3n2C2CCCCC2)o1

IC50 [3]: 23 nM
SMILES: CNC(=O)C(C#N)=Cc1ccc(-c2nc3cnc4[nH]ccc4c3n2C2CCCCC2)o1

IC50 [3]: 436 nM
SMILES: N#CCCc1ccc(-c2nc3cnc4[nH]ccc4c3n2C2CCCCC2)cc1

IC50 [3]: 490 nM
SMILES: NC(=O)CCc1cccc(-c2nc3cnc4[nH]ccc4c3n2C2CCCCC2)c1

IC50 [3]: 571 nM
SMILES: CN(C)C(=O)C(C#N)=Cc1ccc(-c2nc3cnc4[nH]ccc4c3n2C2CCCCC2)cc1

IC50 [3]: 368 nM
SMILES: CN(C)C(=O)C(C#N)=Cc1ccc(-c2nc3cnc4[nH]ccc4c3n2C)o1

IC50 [3]: 129 nM
SMILES: NC(=O)/C=C/c1ccc(-c2nc3cnc4[nH]ccc4c3n2C2CCCCC2)o1

IC50 [3]: 205 nM
SMILES: CN(C)C(=O)C(C#N)=Cc1cccc(-c2nc3cnc4[nH]ccc4c3n2C2CCCCC2)c1

IC50 [3]: 135 nM
SMILES: N#C/C=C/c1cccc(-c2nc3cnc4[nH]ccc4c3n2C2CCCCC2)c1

IC50 [3]: 678 nM
SMILES: CN(C)C(=O)CCc1cccc(-c2nc3cnc4[nH]ccc4c3n2C2CCCCC2)c1

IC50 [3]: > 10000 nM
SMILES: CN(C)C(=O)C(C#N)=Cc1ccc(-c2nc3cnc4c(ccn4C)c3n2C2CCCCC2)o1

IC50 [3]: 505 nM
SMILES: N#CCCc1cccc(-c2nc3cnc4[nH]ccc4c3n2C2CCCCC2)c1
